These results are taken from patent US8273880B2, “Pyrazole compounds with inhibitory activity against ROS kinase” (Korea Institute of Science and Technology, priority 2009, dated 2012).

Entries after “also recorded” stand apart in the source; their conditions may differ.

In one assay the test system is 45 different kinases. The assay is described as follows: Kinase selectivity from screening over 45 different kinases. Format: biochemical. On the procedure: (§1) Kinase screening was performed using a “HotSpot” assay platform commercially available from Reaction Biology Corporation. For this kinase screening, reaction buffers were based on 20 mM Hepes (pH 7.5), 10 mM MgCl2, 1 mM EGTA, 0.02% Brij35, 0.02 mg/mL BSA, 0.1 mM Na3VO4, 2 mM DTT, and 1% DMSO, with supplementary factors necessary for respective kinase reactions added thereto. In each enzyme reaction, […] of each kinase was used together with a fresh reaction buffer and appropriate supplementary factors. A solution of each compound in DMSO was added in a suitable concentration to the reaction buffer. Kinase reaction started with the introduction of […] (specific activity […]) and continued for 2 hours at room temperature.
1) Screening of Compounds Over 45 Different Kinases
Each compound was tested twice at a single dose concentration of 10 μM. […] The reaction was performed with 10 μM ATP.

The target in a further assay is ROS kinase (Homo sapiens, UniProt P08922). The assay is described as follows: ROS kinase screening (HotSpot, IC50 mode). Format: biochemical. The arrangement: purchased Reaction Biology Corporation. Particulars: 10-dose IC50 mode starting from 20 μM; 10 μM ATP; read-out: Inhibitory Activity against ROS (IC50). On the procedure: as §1
ROS kinase, sequence (P08922 28-2347): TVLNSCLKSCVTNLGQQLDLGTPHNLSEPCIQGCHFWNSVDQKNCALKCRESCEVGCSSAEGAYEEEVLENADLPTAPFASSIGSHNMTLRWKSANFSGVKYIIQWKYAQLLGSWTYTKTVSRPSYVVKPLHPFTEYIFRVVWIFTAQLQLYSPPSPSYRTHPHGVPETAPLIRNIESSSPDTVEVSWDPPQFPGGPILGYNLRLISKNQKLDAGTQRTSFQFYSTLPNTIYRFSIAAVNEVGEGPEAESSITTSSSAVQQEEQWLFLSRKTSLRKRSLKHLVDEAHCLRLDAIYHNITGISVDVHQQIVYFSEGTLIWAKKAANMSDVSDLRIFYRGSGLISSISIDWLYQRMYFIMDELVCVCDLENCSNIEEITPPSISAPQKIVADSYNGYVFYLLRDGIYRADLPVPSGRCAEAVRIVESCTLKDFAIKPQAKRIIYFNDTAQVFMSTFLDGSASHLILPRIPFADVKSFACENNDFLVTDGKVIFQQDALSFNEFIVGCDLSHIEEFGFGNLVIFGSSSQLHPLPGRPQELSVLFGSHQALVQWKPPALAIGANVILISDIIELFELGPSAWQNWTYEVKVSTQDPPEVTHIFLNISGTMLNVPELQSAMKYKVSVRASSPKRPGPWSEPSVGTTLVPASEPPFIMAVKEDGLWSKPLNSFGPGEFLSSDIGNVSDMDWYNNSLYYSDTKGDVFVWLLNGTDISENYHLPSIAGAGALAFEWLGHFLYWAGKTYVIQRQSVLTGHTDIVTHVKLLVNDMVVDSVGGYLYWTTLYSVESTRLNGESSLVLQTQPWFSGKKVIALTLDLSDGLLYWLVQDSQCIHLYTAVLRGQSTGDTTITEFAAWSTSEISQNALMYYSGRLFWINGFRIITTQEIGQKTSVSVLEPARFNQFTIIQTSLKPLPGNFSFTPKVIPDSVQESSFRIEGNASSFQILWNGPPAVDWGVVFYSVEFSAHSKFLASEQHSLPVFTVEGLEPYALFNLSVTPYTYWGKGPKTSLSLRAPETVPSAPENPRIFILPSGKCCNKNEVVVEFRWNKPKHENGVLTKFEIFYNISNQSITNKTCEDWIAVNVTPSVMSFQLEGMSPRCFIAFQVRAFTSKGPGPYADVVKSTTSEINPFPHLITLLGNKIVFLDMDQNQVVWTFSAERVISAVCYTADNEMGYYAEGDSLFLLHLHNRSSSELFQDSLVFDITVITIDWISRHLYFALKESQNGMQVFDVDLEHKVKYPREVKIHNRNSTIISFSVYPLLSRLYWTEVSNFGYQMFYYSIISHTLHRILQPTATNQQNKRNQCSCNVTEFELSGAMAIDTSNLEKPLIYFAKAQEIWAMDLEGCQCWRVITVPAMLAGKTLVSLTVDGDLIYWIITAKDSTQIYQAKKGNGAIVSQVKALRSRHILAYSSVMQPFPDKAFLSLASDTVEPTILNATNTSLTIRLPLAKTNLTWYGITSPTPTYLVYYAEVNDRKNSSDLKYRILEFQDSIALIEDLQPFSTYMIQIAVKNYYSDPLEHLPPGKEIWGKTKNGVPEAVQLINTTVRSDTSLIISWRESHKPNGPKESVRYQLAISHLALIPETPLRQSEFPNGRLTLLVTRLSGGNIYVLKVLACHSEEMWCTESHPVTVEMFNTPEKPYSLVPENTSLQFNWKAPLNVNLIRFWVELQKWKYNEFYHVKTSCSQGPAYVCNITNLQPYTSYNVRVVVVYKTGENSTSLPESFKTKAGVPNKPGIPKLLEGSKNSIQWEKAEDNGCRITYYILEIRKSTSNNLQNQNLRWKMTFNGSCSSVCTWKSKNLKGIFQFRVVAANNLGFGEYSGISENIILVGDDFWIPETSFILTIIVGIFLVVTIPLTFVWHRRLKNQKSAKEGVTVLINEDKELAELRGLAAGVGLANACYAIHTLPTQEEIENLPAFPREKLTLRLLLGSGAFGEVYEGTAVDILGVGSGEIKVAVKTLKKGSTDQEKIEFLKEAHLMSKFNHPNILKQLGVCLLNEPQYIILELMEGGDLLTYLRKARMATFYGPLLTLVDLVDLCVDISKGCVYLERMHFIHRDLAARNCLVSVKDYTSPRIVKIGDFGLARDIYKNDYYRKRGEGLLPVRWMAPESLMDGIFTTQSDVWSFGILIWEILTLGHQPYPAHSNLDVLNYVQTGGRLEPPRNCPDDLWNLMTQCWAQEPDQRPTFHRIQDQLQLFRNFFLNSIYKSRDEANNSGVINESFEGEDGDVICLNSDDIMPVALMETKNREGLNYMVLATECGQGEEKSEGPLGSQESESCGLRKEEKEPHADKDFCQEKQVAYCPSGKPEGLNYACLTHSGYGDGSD
The reaction was performed with 10 μM ATP.

With `Cc1cc(O)cc(-c2nn(CC#N)cc2-c2ccnc(-c3cccnc3)c2)c1` [Example 44, [3-(3-hydroxy-5-methylphenyl)-4-(2-(pyridin-3-yl)pyridin-4-yl)-pyrazol-1-yl]acetonitrile], in the assay on 45 different kinases, the “Notes (selectivity for ROS)” value is given as “ROS selectivity; also recorded: Selective for ROS”. For the same compound, the IC50 on ROS kinase was found to be 209 nM.
